Ten molecules from patent publication US11471460B2, “Autophagy modulators for use in treating cancer” (The United States of America,as represented by the …, priority 2017, dated 2022) can be followed below.

The subject of one experiment is osteosarcoma U2OS cells. In words: Induction of cytoplasmic vacuoles (enlarged lysosomes) in U2OS cells, light microscopy. Particulars: for Concentration to induce LC3-II accumulation, inhibit proliferation or viability relative to concentration to observe vacuolization: same U2OS cells. The experiment is classed as cell-based, human. From the text: Vehicle is the concentration of DMSO that was introduced by addition of compounds.
These effects are dependent on the compound selected, its concentration and the length of time cells are exposed to the compound.
(§1) Cells were obtained from the American Type Culture Collection. BORCS5-KO HeLa cells have been described previously. Osteosarcoma U2OS were routinely seeded in 6-well plates (0.5×10^5 cells/well) and cultured in Dulbecco's Modified Eagle's medium supplemented with L-Glutamine, 4.5 g/L Glucose, Sodium Pyruvate, Phenol Red, and either heat-inactivated or normal 10% fetal calf serum at 37° C. in 5% CO2. Approximately 15-19 hours later, the indicated compound was added in 1:1000 dilutions. Results were the same using either heat-inactivated or normal fetal calf serum. Melanoma A375, embryonic kidney 293T and human foreskin fibroblast Hs27 cells were cultured in the same medium, except that cells were seeded into 12-well plates at 10^3 cells/well.
Phase contrast photographs were taken on an Olympus CKX41 microscope. Confocal photographs were taken on a Leica TCS-SP5II. For immunofluorescence microscopy, the cells were fixed in 4% paraformaldehyde (Electron Microscopy Sciences, 15714) in PBS for 12 min, permeabilized with 0.2% Triton X-100 in PBS for 10 min, and blocked in 0.2% BSA (Sigma-Aldrich, A7030) in PBS for 30 min at 37° C. For endogenous LC3 staining, cells were permeabilized in methanol for 20 min at −20° C. after the paraformaldehyde fixation. The cells were sequentially incubated with primary antibodies (LAMP1: Developmental Studies Hybridoma Bank; LC3 and LAMTOR4: Cell Signaling Technology; FLAG epitope: Sigma-Aldrich) and secondary antibodies conjugated to Alexa Fluor dyes (Life Technologies) diluted with 0.2% BSA in PBS for 30 min at 37° C. Coverslips were mounted on glass slides using Fluoromount-G (Electron Microscopy Sciences, 17984-24). Cells were imaged using a Zeiss LSM880 with AiryScan confocal microscope (Carl Zeiss AG, Oberkochen, Germany) or a Leica TCS-SP5II. The final composite images were created and properly analyzed for lysosomal size examination using ImageJ (NIH).

Experiment [1] relates to LC3-II and p62 in U2OS cells. In words: Accumulation of autophagosome markers LC3-II and p62, Western immuno-blotting. The class given is cell-based, human. The following applies: U2OS cells. The method, then:
Cells were cultured for 4 hrs before total cell extracts were subjected to Western immuno-blotting for LC3, p62 and β-actin. Blot was developed with film. […] (C) U2OS cells were cultured for the times indicated in the presence of 1.2 μM compound 1 to produce 80% of the maximum observed in FIG. 10A. Total cell extracts were assayed at the times indicated. […] All blots were stained with Ponceau S […].
Total cell lysates were prepared (in 4× dye). Proteins were fractionated at 200V in a NuPAGE 4-12% bis-tris polyacrylamide gel (NP0323, Novex) using NuPAGE MES running buffer (NP0002, Novex) and then stained with PageBlue (24260, Thermo Scientific) in order to quantify the relative amount of histones in each sample. […] Proteins were wet-transferred onto nitrocellulose membranes (162-0112, Bio-Rad) using NuPAGE transfer buffer (NP-0006-1, Novex) for 1 hour at 30V. Membranes were then stained with dilute Ponceau S solution, blocked in 5% milk for 30 minutes at room temperature, and incubated overnight at 4° C. in primary antibody. Membranes were washed with phosphate buffered saline with tween 20 (PBST) three times for 10 min. each, incubated with secondary antibodies in 5% milk for 1 hour, washed three times with PBST again, covered in ECL (SuperSignal West Pico chemiluminescent substrate, 34080, Thermo Scientific) and exposed to film (HyBlot ES, E3218, Denville Scientific).

For experiment [2], the system named is melanoma A375 cells. In words: A375 cell proliferation (crystal violet plate assay). The experiment is classed as cell-based, human.
The subject of experiment [3] is human foreskin fibroblasts. The experiment can be described thus: Proliferation/viability of human foreskin fibroblasts. The class given is cell-based. The following applies: Fibroblast. As for the experimental part:
Concentration of each compound in the plate assay is indicated below the compound 1 plate.
as §1, with “Results were the same using either heat-inactivated or normal fetal calf serum.” left out

Experiment [4] deals with breast adenocarcinoma cells. In words: Viability of breast adenocarcinoma cells. The class given is cell-based. Particulars: Homo sapiens. The method, then: (§2) FIG. 18 summarizes results from 13 human cell lines. All cells were seeded at the same cell density in a rich culture medium and assayed under identical conditions. Compound 1 efficacy is the ratio of cell viability with compound 1 to cell viability with chloroquine derivatives.

The test system of experiment [5] is melanoma A375 cells. In words: Cytoplasmic vacuolization of A375 cells. The class given is cell-based, human.
Another experiment concerns embryonic kidney cells. In words: Viability of embryonic kidney cells. The class given is cell-based. Particulars: Homo sapiens. As for the experimental part: as §2
as §1, with “Results were the same using either heat-inactivated or normal fetal calf serum.” left out

For a further experiment, the target named is T1, PIKFYVE (Homo sapiens, UniProt Q9Y2I7).
T1 construct: purchased DiscoverX (KINOMEscan service, San Diego, Calif.)
The experiment can be described thus: DiscoverX KINOMEscan dissociation constant. The experiment is classed as binding. As for the experimental part: Each kinase was tagged with a unique DNA sequence that allowed the amount of protein bound to the solid support to be quantified by PCR. The top three targets for compound 1 were PIKFYVE, PIP4K2C and MTOR. […] Dissociation constants (Kd) were determined from the amount of kinase captured on the solid support as a function of the test compound concentration (nM) on a log10 scale. Mean Kd values (±range) are given for each compound. The ratio of PIP4K2C to PIKFYVE indicates the relative specificity for these two kinases.
To address this hypothesis, a panel of 468 human kinases were screened for their ability to bind compound 1. […] The top two candidates were PIKFYVE (phosphoinositide kinase FYVE-type zinc finger containing) and PIP4K2C (phosphatidylinositol-5-phosphate 4-kinase). PIKFYVE is a kinase that is essential for mouse development (49) and that prevents endosome enlargement and cytoplasmic vacuolization (50, 51). PIP4K2C is a kinase that is not essential for mouse growth and viability, but it is essential for the immune system (52), mTORC1 signaling (53), and regulation of autophagy (54). The third candidate was MTOR, a kinase that regulates autophagy (55). Therefore, the binding constants (Kd) for all five members of the compound 1-family were determined for each of these three proteins from two independent titration curves, as shown for compound 1.

Where two headings read alike, the source gives them in different places. Where only a bound is given, the exact number is not on record here.

T1 sequence (Q9Y2I7 whole entry): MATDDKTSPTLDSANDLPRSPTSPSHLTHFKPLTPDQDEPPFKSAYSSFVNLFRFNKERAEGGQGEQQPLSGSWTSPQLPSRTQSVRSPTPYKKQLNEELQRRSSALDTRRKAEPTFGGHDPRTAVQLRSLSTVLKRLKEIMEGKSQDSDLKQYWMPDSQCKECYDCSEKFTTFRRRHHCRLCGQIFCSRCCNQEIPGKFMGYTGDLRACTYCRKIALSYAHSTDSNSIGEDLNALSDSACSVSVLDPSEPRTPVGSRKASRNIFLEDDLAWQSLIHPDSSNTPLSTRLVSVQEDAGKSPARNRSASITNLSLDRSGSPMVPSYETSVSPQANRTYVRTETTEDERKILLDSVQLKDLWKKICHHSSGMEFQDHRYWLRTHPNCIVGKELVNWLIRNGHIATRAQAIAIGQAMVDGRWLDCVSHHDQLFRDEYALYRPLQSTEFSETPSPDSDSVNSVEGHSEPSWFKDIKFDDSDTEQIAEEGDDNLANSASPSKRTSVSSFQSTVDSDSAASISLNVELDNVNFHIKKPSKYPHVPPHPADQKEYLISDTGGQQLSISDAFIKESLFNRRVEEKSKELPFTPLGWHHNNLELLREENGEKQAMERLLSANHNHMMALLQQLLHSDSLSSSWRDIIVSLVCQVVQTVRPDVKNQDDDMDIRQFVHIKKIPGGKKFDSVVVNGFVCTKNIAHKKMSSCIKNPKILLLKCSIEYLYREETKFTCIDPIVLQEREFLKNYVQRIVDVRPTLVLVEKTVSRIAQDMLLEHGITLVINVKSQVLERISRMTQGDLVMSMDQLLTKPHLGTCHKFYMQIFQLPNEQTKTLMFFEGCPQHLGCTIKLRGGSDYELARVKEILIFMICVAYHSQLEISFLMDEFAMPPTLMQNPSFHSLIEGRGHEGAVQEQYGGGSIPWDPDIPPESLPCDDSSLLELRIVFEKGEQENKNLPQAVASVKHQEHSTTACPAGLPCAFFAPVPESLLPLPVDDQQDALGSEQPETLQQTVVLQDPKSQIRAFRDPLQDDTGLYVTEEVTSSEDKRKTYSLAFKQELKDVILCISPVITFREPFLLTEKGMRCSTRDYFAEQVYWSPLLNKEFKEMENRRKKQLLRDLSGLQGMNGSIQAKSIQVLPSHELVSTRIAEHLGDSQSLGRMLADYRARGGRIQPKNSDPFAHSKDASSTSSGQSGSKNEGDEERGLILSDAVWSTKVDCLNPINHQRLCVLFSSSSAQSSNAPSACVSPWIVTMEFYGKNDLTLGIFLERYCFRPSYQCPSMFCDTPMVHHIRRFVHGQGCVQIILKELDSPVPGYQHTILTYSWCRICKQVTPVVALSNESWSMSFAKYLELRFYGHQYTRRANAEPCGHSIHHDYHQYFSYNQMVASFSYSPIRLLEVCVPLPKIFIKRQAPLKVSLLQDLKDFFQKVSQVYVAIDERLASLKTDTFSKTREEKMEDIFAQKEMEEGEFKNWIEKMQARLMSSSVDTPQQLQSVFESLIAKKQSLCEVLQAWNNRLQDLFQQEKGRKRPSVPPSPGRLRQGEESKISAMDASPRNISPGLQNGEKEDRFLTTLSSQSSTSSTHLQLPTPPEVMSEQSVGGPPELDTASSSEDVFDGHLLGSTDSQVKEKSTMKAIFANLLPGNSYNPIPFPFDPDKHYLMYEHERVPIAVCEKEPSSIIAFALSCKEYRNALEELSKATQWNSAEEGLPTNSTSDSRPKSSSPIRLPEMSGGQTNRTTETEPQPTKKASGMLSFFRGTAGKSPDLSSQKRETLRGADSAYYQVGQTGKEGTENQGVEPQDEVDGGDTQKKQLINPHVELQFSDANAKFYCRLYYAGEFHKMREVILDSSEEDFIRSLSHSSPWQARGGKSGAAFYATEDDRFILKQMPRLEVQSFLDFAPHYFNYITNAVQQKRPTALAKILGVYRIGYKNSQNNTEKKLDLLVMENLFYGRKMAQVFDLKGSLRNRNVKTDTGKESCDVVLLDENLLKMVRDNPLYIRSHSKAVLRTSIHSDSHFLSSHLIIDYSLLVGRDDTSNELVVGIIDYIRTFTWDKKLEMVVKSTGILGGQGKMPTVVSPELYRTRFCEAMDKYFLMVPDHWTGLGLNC

For the molecule `Fc1ccc(Nc2nc(N3CCOCC3)nc(N3CCOCC3)n2)cc1Cl` [compound 2], in the experiment on osteosarcoma U2OS cells, the “Concentration to induce LC3-II accumulation, inhibit proliferation or viability relative to concentration to observe vacuolization” value was “two to three-fold”.

For the molecule `C(=N\Nc1cc(N2CCOCC2)nc(N2CCOCC2)n1)/c1ccccc1` [compound 5], the “Concentration to induce LC3-II accumulation, inhibit proliferation or viability relative to concentration to observe vacuolization” value with osteosarcoma U2OS cells is given as “about 15 fold”.

With `CO/C1=C\C(C)=C\[C@@H](C)[C@@H](O)[C@@H](C)C/C(C)=C/C=C/[C@H](OC)[C@@H]([C@@H](C)[C@@H](O)[C@H](C)[C@@]2(O)C[C@@H](O)[C@H](C)[C@@H](C(C)C)O2)OC1=O` [BafA1, Bafilomycin-A1, reference compound], the “Accumulation of LC3-II” value in experiment [1] is on record as “induced the accumulation of LC3-II”. Moreover, in the experiment with osteosarcoma U2OS cells (U2OS cells), the “Induction of vacuoles / enlarged lysosomes” value is reported as “did not induce formation of enlarged lysosomes”. Besides, in the experiment with osteosarcoma U2OS cells (U2OS cells, BafA1 together with compound 1), the “Effect on vacuole accumulation induced by the compounds of the invention” value is on record as “prevented induction of vacuole accumulation”.

In the case of `Ic1cccc(/C=N/Nc2nc(N3CCOCC3)nc(N(c3ccccc3)c3ccccc3)n2)c1` [Vacuolin], the “Inhibition of proliferation of melanoma A375 cells” value (“Inhibition” for short) with melanoma A375 cells [2] is given as “effective”.

On to `Cc1cccc(/C=N/Nc2cc(N3CCOCC3)nc(OCCc3ccccn3)n2)c1` [Apilimod], for which the “Inhibition” value in the experiment with melanoma A375 cells [2] is reported as “effective”.

The EC50 is the concentration at which the effect is half-maximal. In the case of `CCN(CC)CCCC(C)Nc1ccnc2cc(Cl)ccc12` (stereo not shown) [CQ, chloroquine], the 50% effective concentration (EC50) (in experiment [3] (Homo sapiens); in experiment [4]; in the experiment on embryonic kidney cells) was over 10 µM each time. Also, in the experiment with melanoma A375 cells [2], the “Inhibition” value is “inhibited A375 cell proliferation”. In addition, the “Cytoplasmic vacuolization of A375 cells” value with melanoma A375 cells [5] is recorded as “not observed”.

Usually Kd stands for a measure of binding affinity in units of concentration. Low values mean a tighter complex, high ones a looser complex. Regarding `CCc1ccc(Nc2nc(N3CCOCC3)nc(N3CCOCC3)n2)cc1` [compound 3], the Kd on PIKFYVE (mean of two independent titration curves) worked out at 0.016 µM. The “Concentration to induce LC3-II accumulation, inhibit proliferation or viability relative to concentration to observe vacuolization” value with osteosarcoma U2OS cells is recorded as “two to three-fold”.

On to `Cc1cccc(/C=N/Nc2cc(N3CCOCC3)nc(N3CCOCC3)n2)c1` [compound 4], for which the “Standing within the family for PIKFYVE binding” value at PIKFYVE is “the most specific”. Moreover, the “Concentration to induce LC3-II accumulation, inhibit proliferation or viability relative to concentration to observe vacuolization” value in the experiment with osteosarcoma U2OS cells was “about 10 fold”.

Take `Nc1ccc(C(=O)Nc2cccc(-c3nc(N4CCOCC4)c4oc5ncccc5c4n3)c2)cn1` [YM201636]: the “Inhibition” value in the experiment with melanoma A375 cells [2] was “effective”.

Consider `CCN(CCO)CCCC(C)Nc1ccnc2cc(Cl)ccc12` (stereo not shown) [HCQ, hydroxychloroquine], for which the EC50 in experiment [3] (human foreskin fibroblasts, read-out: EC50) is over 10 µM; in experiment [4] (breast adenocarcinoma cells, read-out: EC50), over 10 µM; with embryonic kidney cells (embryonic kidney cells, read-out: EC50) it was over 10 µM. Moreover, the “Inhibition” value with melanoma A375 cells [2] is “inhibited A375 cell proliferation”. Further, the “Cytoplasmic vacuolization of A375 cells” value in the experiment with melanoma A375 cells [5] is “not observed”.
